Test results reported in patent US20240180872A1, “METHODS AND COMPOUNDS OF CANNABIDIOL, MELATONIN AND AKBA FOR TREATING PANCREATIC CANCER” (priority 2021, published 2024).

Experiments:
[1] = tested on: U251 Glioblastoma cell line; assay: Cytotoxicity assay (MTT, 72 hours, daily administration) in U251; assay type: cell-based; conditions: Homo sapiens, U-251, read-out: % VIABILITY ± S.D.
From the text: (§1) The combinations were effective in other human tumor cell lines and we tested in glioblastoma cell line and endometrial cancer cell Additional tests include data obtained from two independent experiments, six wells for dose.

[2] = tested on: PCEM004a endometrial cancer cell line; assay: Cytotoxicity assay (MTT, 72 hours, daily administration) in PCEM004a; assay type: cell-based; conditions: Homo sapiens, read-out: % VIABILITY ± S.D.
From the text: as §1

[3] = tested on: pancreatic adenocarcinoma associated genes; assay: TaqMan Array gene expression in MIAPaCa-2, normalized for GAPDH; assay type: cell-based, Human; conditions: Mia-PACA-2, 24 hs, CBD 3.8, MLT 200, AKBA 7.5 micrograms/ml
Protocol: Total RNA from untreated or CBD, MLT, AKBA alone and in combination treated cell lines was extracted using Rneasy Mini kit (Qiagen, Milan, Italy). One microgram of total RNA from each sample was subjected to reverse transcription in a total volume of 20 μL using the High-Capacity cDNA Archive Kit (Applied Biosystem, Foster City, […], USA) according to the instructions. cDNAs were analyzed by qRT-PCR performed using an IQ5 Multicolor Real time PCR Detection system. Quantitative real-time gene expression was performed with the TaqMan® Array Human Pancreatic Adenocarcinoma 96-well Plate, containing 92 assays to pancreatic adenocarcinoma associated genes and 4 assays to candidate endogenous control genes, was purchased (Thermo Fisher, Grand Island, NY, USA) and used to evaluate the treatments in modulating PDAC-related genes (Table 1). Measurement of different housekeeping genes (GAPDH; HPRT1; GUSB) on the samples was used to normalize mRNA content. The gene expression levels of treated cell lines were expressed as relative fold compared with untreated or vehicle-treated cells.
To elucidate the molecular events induced by CBD, MLT and AKBA alone and in combination, 92 genes involved in PDAC progression and aggressiveness were evaluated by Taqman Array. Both cell lines were treated with CBD, MLT and AKBA alone and in combination, and the molecular pathways of PDAC associated gene were evaluated.
Target mRNA levels were normalized for GAPDH expression.

[4] = tested on: MIAPaCa-2 cell line; assay: Cytotoxicity assay (MTT, 72 hours, daily administration) in MIAPaCa-2; conditions: Homo sapiens, MIA PaCa-2, read-out: % VIABILITY ± S.D.
Protocol: Human pancreatic ductal adenocarcinoma (PANC-1 and MIAPaCa-2) cell lines were purchased by Sigma Aldrich (Milan, Italy) and cultured in DMEM high glucose medium (EuroClone, Milan, Italy) supplemented with 10% of fetal bovine serum (FBS), 2 mM L-glutamine, 100 IU/mL penicillin, 100 mg streptomycin and 1 mM sodium pyruvate. Cell lines were maintained at 37° C. with 5% CO2 and 95% of humidity.
3×10^4 cells/mL were seeded in 96-well plates in a final volume of 100 L/well. After one day of incubation, compounds or vehicles, alone or in combination, were added and six replicates were used for each treatment and all experiments were repeated three times. In all the experiments, the treatment was daily added, after washing with fresh medium. After 72 hours cell viability was investigated by adding 0.8 mg/mL of 3-[4,5-dimethylthiazol-2-yl]-2,5 diphenyl tetrazolium bromide (MTT) (Sigma Aldrich) to the media. After 3 h the supernatant was removed, and the pellet of salt crystals was solubilized with 100 μL/well of DMSO. The absorbance of the sample against a background control was measured at 570 nm using an ELISA reader microliter plate (BioTek Instruments, Winooski, VT, USA).
Cytotoxicity in PDAC cell lines: The effect of CBD, MLT and AKBA in reducing cell viability was evaluated at 72 hours, post daily administration, in PDAC cell lines. Cells were treated with different doses of CBD, MLT and AKBA (up to 1 mg) and percentage of cell viability was evaluated by the MTT assay. […] The compounds were administered daily for 72 hours, as in previous experiments at the desired doses. […] MTT assay was used to analyse the cell cytotoxicity.

[5] = normalized for GAPDH, Akt pathways
[6] = normalized for GAPDH, Akt-pathways
[7] = normalized for GAPDH, DNA repair
[8] = normalized for GAPDH, NfkB pathways
[9] = normalized for GAPDH, Ras pathways
[10] = normalized for GAPDH, TGF patways
[11] = normalized for GAPDH, TGF-patways
[12] = normalized for GAPDH, angiogenesis
[13] = normalized for GAPDH, apoptosis
[14] = normalized for GAPDH, cell cycle
[15] = normalized for GAPDH, inflammation
[16] = normalized for GAPDH, proliferation

COc1ccc2[nH]cc(CCNC(C)=O)c2c1 [MLT, N-[2-(5-methoxy-1H-indol-3-yl)ethyl]acetamide]
viability at 100 µg/mL [1]: 100 ± 2.3% | viability at 200 µg/mL [1]: 65.4 ± 4.4% | viability at 400 µg/mL [1]: 58.2 ± 4.1% | viability at 800 µg/mL [1]: 17 ± 1.1% | viability at 100 µg/mL [2]: 96.5 ± 8.2% | viability at 200 µg/mL [2]: 90.4 ± 6.2% | viability at 400 µg/mL [2]: 80.1 ± 5.3% | viability at 800 µg/mL [2]: 31.3 ± 2.8% | GAPDH relative expression ([3]; GAPDH is the normalizer): 1.00 | PK3CB relative expression [3, 5]: 0.15 | PK3CD relative expression [3, 5]: 0.07 | AKT1 relative expression [3, 6]: 0.09 | AKT2 relative expression [3, 6]: 0.55 | AKT3 relative expression [3, 6]: 0.00 | IGF1 relative expression [3, 6]: 0.00 | PK3CA relative expression [3, 6]: 0.00 | PK3R1 relative expression [3, 6]: 0.03 | BRCA2 relative expression [3, 7]: 0.40 | MDM2 relative expression [3, 7]: 0.00 | TP53 relative expression [3, 7]: 0.26 | HSP90AA1 relative expression ([3]; normalized for GAPDH, Heat sock protein): 0.00 | NFKB1 relative expression [3, 8]: 0.11 | NFKB2 relative expression [3, 8]: 0.02 | REL relative expression [3, 8]: 0.09 | RELA relative expression [3, 8]: 0.00 | RELB relative expression [3, 8]: 0.06 | RHOA relative expression [3, 8]: 0.07 | RHOB relative expression [3, 8]: 0.03 | BRAF relative expression [3, 9]: 0.16 | E2F1 relative expression [3, 9]: 0.16 | E2F3 relative expression [3, 9]: 0.09 | E2F4 relative expression [3, 9]: 0.19 | EGF relative expression [3, 9]: 0.00 | EGFR relative expression [3, 9]: 0.19 | ELK1 relative expression [3, 9]: 0.11 | ERBB2 relative expression [3, 9]: 0.05 | GRB2 relative expression [3, 9]: 0.28 | HBEGF relative expression [3, 9]: 0.46 | KRAS relative expression [3, 9]: 0.01 | MAP2K1 relative expression [3, 9]: 0.04 | MAP2K2 relative expression [3, 9]: 0.09 | MAPK1 relative expression [3, 9]: 0.03 | MAPK3 relative expression [3, 9]: 0.01 | RAF1 relative expression [3, 9]: 0.07 | RB1 relative expression [3, 9]: 0.03 | SOS1 relative expression [3, 9]: 0.07 | TGFB2 relative expression [3, 10]: 0.00 | TGFB3 relative expression [3, 10]: 0.00 | TGFBR1 relative expression [3, 10]: 0.00 | SMAD2 relative expression [3, 11]: 0.21 | SMAD3 relative expression [3, 11]: 0.24 | SMAD4 relative expression [3, 11]: 0.09 | TGFA relative expression [3, 11]: 0.20 | TGFB1 relative expression [3, 11]: 0.04 | TGFBR2 relative expression [3, 11]: 0.00 | FIGF relative expression [3, 12]: 0.14 | VEGFA relative expression [3, 12]: 0.02 | VEGFB relative expression [3, 12]: 0.04 | VEGFC relative expression [3, 12]: 0.00 | BCL2L1 relative expression [3, 13]: 0.26 | BCL2 relative expression [3, 13]: 0.00 | BIRC5 relative expression [3, 13]: 0.16 | CCNA2 relative expression [3, 14]: 0.09 | CCNB1 relative expression [3, 14]: 0.40 | CCND1 relative expression [3, 14]: 0.12 | CCND2 relative expression [3, 14]: 0.00 | CCNE1 relative expression [3, 14]: 0.13 | CCNE2 relative expression [3, 14]: 0.09 | CDC42 relative expression [3, 14]: 0.00 | CDK2 relative expression [3, 14]: 0.09 | CDK4 relative expression [3, 14]: 0.20 | CDKN1A relative expression [3, 14]: 0.08 | CDKN1B relative expression [3, 14]: 0.11 | CDKN2A relative expression [3, 14]: 0.20 | CDKN2B relative expression [3, 14]: 1.98 | CDKN2C relative expression [3, 14]: 0.17 | CDKN2D relative expression [3, 14]: 0.05 | IL6 relative expression [3, 15]: 0.00 | JAK1 relative expression [3, 15]: 0.02 | JAK2 relative expression [3, 15]: 0.02 | JAK3 relative expression [3, 15]: 0.00 | STAT1 relative expression [3, 15]: 0.13 | STAT2 relative expression [3, 15]: 0.00 | STAT3 relative expression [3, 15]: 0.08 | STAT6 relative expression [3, 15]: 0.01 | STATSB relative expression [3, 15]: 0.49 | MMP1 relative expression ([3]; normalized for GAPDH, invasion): 0.08 | MMP2 relative expression ([3]; normalized for GAPDH, invasion): 0.00 | MMP3 relative expression ([3]; normalized for GAPDH, invasion): 0.01 | MMP7 relative expression ([3]; normalized for GAPDH, invasion): 0.01 | MMP9 relative expression ([3]; normalized for GAPDH, invasion): 0.04 | PTGS2 relative expression ([3]; normalized for GAPDH, invasion): 0.03 | RAC1 relative expression ([3]; normalized for GAPDH, invasion): 0.00 | RAC2 relative expression ([3]; normalized for GAPDH, invasion): 0.01 | KIT relative expression [3, 16]: 0.01 | NOTCH1 relative expression [3, 16]: 0.38 | SRC relative expression [3, 16]: 0.07 | viability at 100 µg/mL [4]: 100 ± 8.8% | viability at 200 µg/mL [4]: 87.8 ± 8.2% | viability at 400 µg/mL [4]: 78.2 ± 8.5% | viability at 800 µg/mL [4]: 12.5 ± 0.8%
